Reference: the Kinase Knowledgebase extract (Sharma et al. 2016)

These compounds were tested against MAPK14 (UniProt Q16539) (assay: MAPK14 Binding Inhibition).
Sequence of MAPK14 (Q16539 whole entry, looked up): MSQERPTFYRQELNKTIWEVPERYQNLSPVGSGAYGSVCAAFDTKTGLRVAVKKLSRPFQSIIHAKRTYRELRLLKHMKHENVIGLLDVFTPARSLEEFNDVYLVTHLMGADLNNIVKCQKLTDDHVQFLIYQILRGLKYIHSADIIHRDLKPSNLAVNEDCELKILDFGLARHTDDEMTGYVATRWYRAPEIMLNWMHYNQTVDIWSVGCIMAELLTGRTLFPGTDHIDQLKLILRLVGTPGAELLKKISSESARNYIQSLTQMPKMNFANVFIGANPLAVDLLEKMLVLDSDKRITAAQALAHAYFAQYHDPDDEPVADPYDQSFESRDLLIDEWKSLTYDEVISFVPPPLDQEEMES

Row | inhibition | SMILES
1 | < 50 µM | Fc1ccc(-c2ncn(C3CCNCC3)c2-c2ccnc(Nc3cccc(Br)c3)n2)cc1
2 | < 50 µM | CN1CCC(n2cnc(-c3ccc(F)cc3)c2-c2ccnc(NCc3ccccc3)n2)CC1
3 | < 50 µM | CN1CCC(n2cnc(-c3ccc(F)cc3)c2-c2ccnc(NCc3cccc(Cl)c3)n2)CC1
4 | < 50 µM | Fc1ccc(-c2ncn(C3CCNCC3)c2-c2ccnc(Nc3ccccc3)n2)cc1
5 | < 50 µM | CN1CCC(n2cnc(-c3ccc(F)cc3)c2-c2ccnc(Nc3ccccc3)n2)CC1
6 | < 50 µM | O=C1CCC(n2cnc(-c3ccc(F)cc3)c2-c2ccnc(Nc3ccccc3)n2)CC1
7 | < 50 µM | CN1CCC(n2cnc(-c3ccc(F)cc3)c2-c2ccnc(NCc3cccc4ccccc34)n2)CC1
8 | < 50 µM | CCOC(=O)N1CCC(Nc2nccc(-c3c(-c4ccc(F)cc4)ncn3C3CCN(C)CC3)n2)CC1
9 | < 50 µM | O[C@H]1CC[C@H](n2cnc(-c3ccc(F)cc3)c2-c2ccnc(Nc3ccccc3)n2)CC1
10 | < 50 µM | CN1CCC(n2cnc(-c3ccc(F)cc3)c2-c2ccnc(NC3CCN(Cc4ccccc4)CC3)n2)CC1

Continued, compound first:

Row | SMILES | inhibition
11 | CN1CCC(n2cnc(-c3ccc(F)cc3)c2-c2ccnc(NCCc3c[nH]c4ccc(Cl)cc34)n2)CC1 | < 50 µM
12 | CCOCCCNc1nccc(-c2c(-c3ccc(F)cc3)ncn2C2CCNCC2)n1 | < 50 µM
13 | CN1CCC(n2cnc(-c3ccc(F)cc3)c2-c2ccnc(NCc3cccc4c3OCO4)n2)CC1 | < 50 µM
14 | CN1CCC(n2cnc(-c3ccc(F)cc3)c2-c2ccnc(NCCCN3CCOCC3)n2)CC1 | < 50 µM
15 | CN1CCC(n2cnc(-c3ccc(F)cc3)c2-c2ccnc(NC3CCSCC3)n2)CC1 | < 50 µM
16 | CN1CCC(n2cnc(-c3ccc(F)cc3)c2-c2ccnc(NC3CC(C)(C)NC(C)(C)C3)n2)CC1 | < 50 µM
17 | CN1CCC(n2cnc(-c3ccc(F)cc3)c2-c2ccnc(NC3CCNCC3)n2)CC1 | < 50 µM
18 | CC1(C)CC(n2cnc(-c3ccc(F)cc3)c2-c2ccnc(NCCO)n2)CC(C)(C)N1 | < 50 µM
19 | NCCNc1nccc(-c2c(-c3ccc(F)cc3)ncn2C2CCNCC2)n1 | < 50 µM
20 | Fc1ccc(-c2ncn(C3CCNCC3)c2-c2ccnc(Nc3ccccc3)c2)cc1 | < 50 µM
21 | Fc1ccc(-c2ncn(C3CCNCC3)c2-c2ccnc(NCCCn3ccnc3)n2)cc1 | < 50 µM
22 | CN1CCC(n2cnc(-c3ccc(F)cc3)c2-c2ccnc(NCCO)n2)CC1 | < 50 µM
23 | CC1(C)CC(n2cnc(-c3ccc(F)cc3)c2-c2ccnc(Nc3ccccc3)n2)CC(C)(C)N1 | < 50 µM

What follows are compounds tested against MAPK14 (UniProt Q16539) (assay: MAPK14 Kinase Inhibition).

Row | IC50 | SMILES
24 | < 50 µM | Fc1ccc(-c2ncn(C3CCNCC3)c2-c2ccnc(Nc3cccc(F)c3)n2)cc1
25 | < 50 µM | COc1cccc(Nc2nccc(-c3c(-c4ccc(F)cc4)ncn3C3CCNCC3)n2)c1
26 | < 50 µM | Oc1ccc(Nc2nccc(-c3c(-c4ccc(F)cc4)ncn3C3CCNCC3)n2)cc1
27 | < 50 µM | CCOC(=O)N1CCC(n2cnc(-c3ccc(F)cc3)c2-c2ccnc(Nc3cccc(OCc4ccccc4)c3)n2)CC1
28 | < 50 µM | CCOC(=O)N1CCC(n2cnc(-c3ccc(F)cc3)c2-c2ccnc(Nc3ccc(OCc4ccccc4)cc3)n2)CC1
29 | < 50 µM | Oc1cccc(Nc2nccc(-c3c(-c4ccc(F)cc4)ncn3C3CCNCC3)n2)c1

Second part, the compound before the results:

Row | SMILES | IC50
30 | COc1ccccc1Nc1nccc(-c2c(-c3ccc(F)cc3)ncn2C2CCNCC2)n1 | < 50 µM
31 | Fc1ccc(-c2ncn(C3CCNCC3)c2-c2ccnc(Nc3ccccc3F)n2)cc1 | < 50 µM
32 | Fc1ccc(-c2ncn(C3CCNCC3)c2-c2ccnc(Nc3cccc(C(F)(F)F)c3)n2)cc1 | < 50 µM
33 | Fc1ccc(-c2ncn(C3CCNCC3)c2-c2ccnc(Nc3ccc(F)c(F)c3)n2)cc1 | < 50 µM
34 | COc1ccc(Nc2nccc(-c3c(-c4ccc(F)cc4)ncn3C3CCNCC3)n2)cc1 | < 50 µM
35 | C[S+]([O-])c1ccc(-c2ncn(C3CCNCC3)c2-c2ccnc(Nc3ccccc3)n2)cc1 (configuration not stated) | < 50 µM
36 | CSc1ccc(-c2ncn(C3CCNCC3)c2-c2ccnc(Nc3ccccc3)n2)cc1 | < 50 µM
37 | Fc1ccc(Nc2nccc(-c3c(-c4ccc(F)cc4)ncn3C3CCNCC3)n2)cc1 | < 50 µM
